In patent US20250041624A1, “METHOD FOR ENHANCING ACTIVITY OF PHOTOSENSITIZER BY MAGNETIC FIELD” (PEKING UNIVERSITY, priority 2021, published 2025):
“And” between values parts separate entries of the source, which are not always exact repeats. Equal entries are not always repeated. Where two headings read alike, the source gives them in different places.

Experiments:
HeLa cells = test: CCK-8 cell viability of HeLa cells under light and magnetic field; assay type: cell-based; details: for CV(%) (cell viability): final concentration of photosensitizer 30 mol/L (so in the source), light 10 min; for mfe(CV)(%) =(CV0−CVB)/CV0×100%: photosensitizer 30 mol/L (so in the source); for IC50: white light 400-700 nm 5 mW·cm−2, 10 min, read-out: RB Half inhibitory concentration
Procedure: (1) Appropriate amounts of HeLa cells are added to DMEM medium (Corning, USA, high glycoform, with glucose concentration […] 4.5 g/L), and then appropriate amounts of 10 wt % fetal bovine serum (FBS), 1 wt % penicillin and streptomycin are added. Cells are cultured at 37° C. in humidified air with 5% (volume fraction) CO2 for 2 days.
The above Hela cells (2×10^3/well) are seeded in 96-well plates for 24 h without light. 100 μL medium and 100 μL aqueous solution of RB with concentrations of 80, 40, 20, 10, 5 μmol/L or 100 μL 0.01 mol/L PBS buffer (phosphate buffered saline) are added respectively, and treated for 24 h, thereafter the cells are washed 3 times with PBS buffer.
DMEM (comprising FBS) medium is added to the 96-well plates for 24 hours in the absence of light. An additional 10 μL of Cell Counting Kit-8 (CCK-8 kit) (Beyotime Biotechnology Co. Ltd.) and 90 μL of DMEM are added to each well, and the light and magnetic field strength are controlled for a subsequent incubation of 30 minutes. The absorbance at 450 nm is read using a microplate reader. Cell Viability (CV) of Hela cells is calculated using the following equation: […]
Where As is the absorbance of HeLa cells comprising photosensitizer (PS), Ac is the absorbance of Hela cells without PS and Ab is the absorbance of those without PS and HeLa cells.
The change rate of half inhibitory concentration, mfeP (Cell Viability (%)) is obtained as follows: mfeP=(IC50,0−IC50,B)/IC50,B×100%, where IC50,0 is half inhibitory concentration at magnetic field strength of 0 mT and IC50,B is half inhibitory concentration at magnetic field strength of B.
Under white light with lighting conditions of 400-700 nm, the power of 5 mW·cm^−2, test is carried out in a magnetic field with strengths of 0-800 mT, and the irradiation and the magnetic field perform for 10 min. The results of the test calculations for mfeP (Cell Viability (%)) at different concentrations of RB and each magnetic field strength are shown in FIG. 8. The RB half inhibitory concentration μmol/L at magnetic field strength of B calculated by logistic regression model fitting according to FIG. 8 are shown in Table 2 below.
In above experiment, with final concentration of photosensitizer of 30 mol/L, CV (%) and mfe (CV) (%) measured and calculated at each magnetic field strength are specifically shown in Table 3, where mfe(CV)=(CV0−CVB)/CV0×100%.

Bax/Bcl-2 = test: Western blot of Bax/Bcl-2 in HeLa cells; assay type: cell-based; details: RB 30 μmol/L treated HeLa; light; 250 mT vs no magnetic field
Procedure: HeLa cells (2×10^4/well) are seeded in 6-well plates and cultured for 24 hours, added with RB solution (final concentration 30 μmol/L) or PBS buffer (final concentration 0.01 mol/L), and after treating 24 hours, cells are washed 3 times with PBS buffer.
The cells are placed under a magnetic field at 0, 250 or 800 mT, simultaneously with light (561 nm, 5 mW·cm^−2) or in the dark. After 24 hours treatment, cells are washed with PBS buffer and collect by centrifugation. Protein is extracted from cells using RIPA lysis buffer (medium lysis strength). Target protein is detected with primary antibody, to identify cleaved Caspase-3 protease, Bax (BCL2-Associated X protein) and Bcl-2 (B lymphocytomatose-2 gene), respectively, with β-Actin antibody as the reference. Images are acquired by Bio-Rad ChemiDoc touch imaging system, and results are shown in FIG. 14, in which, group A is PBS buffer treated HeLa cells (light, no magnetic field); group B is RB treated HeLa cells (light, no magnetic field); group C is RB-treated Hela cells (light, 250 mT magnetic field); group D is RB-treated Hela cells (light, 800 mT magnetic field).
The change rate of protein expression is (AB−A0)/A0×100%, where AB and A0 are protein expression with and without magnetic field, respectively (obtained by ImageJ software analyzing the bands in FIG. 14).

[1] = tested on: HeLa xenograft tumor tissue; test: IHC staining (Bax, Bcl-2, cleaved Caspase-3) of xenograft tumor tissue sections for apoptosis; assay type: in vivo, BALB/c nude mice; details: RB added, day 14, FIG. 19
From the text: (§1) Test (two): After sacrificing the mice on day 14, tumor tissue and major organs (heart, liver, spleen, lungs and kidney) are collected and detected histologically. Tumor tissue and major organs are fixed by 10% neutral formalin solution. Hematoxylin-Eosin (H&E) staining is used to analyze toxicity of light and magnetic field effects on tumor and normal organs. Terminal deoxynucleotidyl transferase-mediated dUTP nick end labeling (TUNEL) staining is used to detect apoptosis in tumor tissue, and expression of cleaved Caspase-3, Bax and Bcl-2 in tumor tissue is simultaneously detected.

[2] = Body weight, abnormal signs and H&E staining of major organs of treated mice; assay type: in vivo; details: all groups
From the text: as §1

**Q.** For O=C1OC2(c3cc(I)c(O)c(I)c3Oc3c2cc(I)c(O)c3I)c2c(Cl)c(Cl)c(Cl)c(Cl)c21 [RB, Rose Bengal], which “mfeP (Cell Viability(%), change rate of half inhibitory concentration)” value (HeLa cells; MF 14 mT vs 0 mT) is on record?
**A.** Its value is −21% and −21.5%.

**Q.** What about the “mfeP (Cell Viability(%), change rate of half inhibitory concentration)” value (HeLa cells; MF 40 mT vs 0 mT) of the same compound?
**A.** Its value is 8.1%.

**Q.** What about the “mfeP (Cell Viability(%), change rate of half inhibitory concentration)” value (HeLa cells; MF 90 mT vs 0 mT) of the same compound?
**A.** Its value is 13.3%.

**Q.** And the “mfeP (Cell Viability(%), change rate of half inhibitory concentration)” value (HeLa cells; MF 150 mT vs 0 mT)?
**A.** Its value is 14.8%.

**Q.** What about the “mfeP (Cell Viability(%), change rate of half inhibitory concentration)” value (HeLa cells; MF 250 mT vs 0 mT) of the same compound?
**A.** Its value is 22.4%.

**Q.** And the “mfeP (Cell Viability(%), change rate of half inhibitory concentration)” value (HeLa cells; MF 575 mT vs 0 mT)?
**A.** The value was 22.1%.

**Q.** What about the “mfeP (Cell Viability(%), change rate of half inhibitory concentration)” value (HeLa cells; MF 700 mT vs 0 mT) of the same compound?
**A.** The value was −11.1%.

**Q.** And the “mfeP (Cell Viability(%), change rate of half inhibitory concentration)” value (HeLa cells; MF 800 mT vs 0 mT)?
**A.** The value was −58%.

**Q.** What about the “CV(%) (cell viability)” value (HeLa cells; MF 0 mT) of the same compound?
**A.** Its value is 71.1 ± 0.5%.

**Q.** And the “CV(%) (cell viability)” value (HeLa cells; MF 14 mT)?
**A.** Its value is 89.8 ± 4.2%.

**Q.** And the “CV(%) (cell viability)” value (HeLa cells; MF 150 mT)?
**A.** Its value is 72.5 ± 3.2%.

**Q.** And the “CV(%) (cell viability)” value (HeLa cells; MF 250 mT)?
**A.** The value was 59.9 ± 2.6%.

**Q.** And the “CV(%) (cell viability)” value (HeLa cells; MF 400 mT)?
**A.** The value was 42.3 ± 6.7%.

**Q.** And the “CV(%) (cell viability)” value (HeLa cells; MF 575 mT)?
**A.** Its value is 74.1 ± 0.6%.

**Q.** What about the “CV(%) (cell viability)” value (HeLa cells; MF 700 mT) of the same compound?
**A.** Its value is 78.3 ± 3.2%.

**Q.** And the “CV(%) (cell viability)” value (HeLa cells; MF 800 mT)?
**A.** The value was 83.0 ± 0.5%.

**Q.** And the “mfe(CV)(%) =(CV0−CVB)/CV0×100%” value (HeLa cells; MF 0 mT)?
**A.** Its value is 0%.

**Q.** What about the “mfe(CV)(%) =(CV0−CVB)/CV0×100%” value (HeLa cells; MF 14 mT) of the same compound?
**A.** Its value is −26.3%.

**Q.** What about the “mfe(CV)(%) =(CV0−CVB)/CV0×100%” value (HeLa cells; MF 150 mT) of the same compound?
**A.** Its value is −1.97%.

**Q.** What about the “mfe(CV)(%) =(CV0−CVB)/CV0×100%” value (HeLa cells; MF 250 mT) of the same compound?
**A.** The value was 15.8%.

**Q.** What about the “mfe(CV)(%) =(CV0−CVB)/CV0×100%” value (HeLa cells; MF 400 mT) of the same compound?
**A.** Its value is 40.5%.

**Q.** And the “mfe(CV)(%) =(CV0−CVB)/CV0×100%” value (HeLa cells; MF 575 mT)?
**A.** The value was −4.2%.

**Q.** What about the “mfe(CV)(%) =(CV0−CVB)/CV0×100%” value (HeLa cells; MF 700 mT) of the same compound?
**A.** Its value is −10.13%.

**Q.** What about the “mfe(CV)(%) =(CV0−CVB)/CV0×100%” value (HeLa cells; MF 800 mT) of the same compound?
**A.** The value was −16.7%.

**Q.** What about the IC50 (HeLa cells; MF 0 mT) of the same compound?
**A.** Its IC50 is 34.2 ± 1.7 µM.

**Q.** And the IC50 (HeLa cells; MF 14 mT)?
**A.** The IC50 was 41.6 ± 1.4 µM.

**Q.** And the IC50 (HeLa cells; MF 40 mT)?
**A.** The IC50 was 31.5 ± 1 µM.

**Q.** What about the IC50 (HeLa cells; MF 90 mT) of the same compound?
**A.** The IC50 was 29.7 ± 0.7 µM.

**Q.** What about the IC50 (HeLa cells; MF 150 mT) of the same compound?
**A.** The IC50 was 29.2 ± 0.6 µM.

**Q.** And the IC50 (HeLa cells; MF 250 mT)?
**A.** The IC50 was 26.6 ± 0.3 µM.

**Q.** And the IC50 (HeLa cells; MF 400 mT)?
**A.** Its IC50 is 26.1 ± 0.8 µM.

**Q.** What about the IC50 (HeLa cells; MF 575 mT) of the same compound?
**A.** Its IC50 is 26.7 ± 1.9 µM.

**Q.** What about the IC50 (HeLa cells; MF 700 mT) of the same compound?
**A.** Its IC50 is 38 ± 1.1 µM.

**Q.** What about the IC50 (HeLa cells; MF 800 mT) of the same compound?
**A.** Its IC50 is 54.1 ± 0.8 µM.

**Q.** And the “change rate of Bax/Bcl-2 expression (%)” value (Bax/Bcl-2)?
**A.** The value was 10.6 ± 0.5%.

**Q.** What about the “apoptosis in tumor sections (IHC)” value ([1]; magnetic field of 250 mT) of the same compound?
**A.** The value was “apoptosis is more pronounced”.

**Q.** And the “apoptosis in tumor sections (IHC)” value ([1]; magnetic field of 800 mT)?
**A.** The value was “apoptosis is not significant”.

**Q.** And the “systemic toxicity (H&E staining of major organs)” value ([2]; heart, liver, spleen, lungs and kidney, day 14, FIG. 20)?
**A.** The value was “do not result in systemic toxicity”.

**Q.** And the “body weight loss or other abnormal signs” value ([2]; mice, 14 days)?
**A.** Its value is “No body weight loss or other abnormal signs”.
